The values that follow come from patent US10968172B2, “USP30 inhibitors” (Mitobridge, Inc., priority 2017, dated 2021).

For orientation: IC50 means the concentration needed to halve the response being measured. Higher therefore signals weaker potency in that assay.

Bounds are passed on as bounds.

The experiment deals with USP30 (Homo sapiens (Human), UniProt Q70CQ3). Kind of experiment: In vitro biochemical assay for USP30 enzyme (Ubiquitin-Rhodamine110 cleavage, fluorescence). The conditions noted are these: 20 nM USP30, 15 min pre-incubation, 100 nM Ub rhodamine substrate, 2 hrs at room temperature. The procedure:
In vitro biochemical assay for USP30 enzyme
The in vitro assay for USP30 evaluates the ability of a test compound to inhibit the activity of the enzyme to cleave ubiquitin from a substrate. Ubiquitin-rhodamine 110 is a quenched, fluorescent substrate for USP30. Cleavage of the amide bond between the C-terminal glycine of ubiquitin and rhodamine results in an increase in rhodamine fluorescence at 535 nm (Exc. 485 nm).
Incubation of the substrate in the presence or absence of USP30 was compared to confirm the deubiquitylating activity of USP30. The USP30 enzyme assay was performed by pre-incubating 20 nM of USP30 with varying concentration of a test compound in the assay buffer [PBS (pH 7.4), 1 mM DTT, 0.01% Tween 20, 0.01% BSA, DMSO final concentration is 1%] for 15 mins at room temperature, following which 100 nM of substrate Ub rhodamine was added and incubated at room temperature for 2 hrs and the plate was read for fluorescence intensity at Ex. 485 nm/535 nm in VICTOR X5 plate reader. The percent inhibition of activity of the enzyme is calculated by comparing counts in the presence and absence of compounds.
Test compounds were screened at various concentrations (10-12 tested concentrations) and dose response curves were generated was generated using GraphPad Prism software Version 7 (San Diego, Calif., USA) with non-linear regression curve fit for sigmoidal dose response (variable slope).

USP30, sequence (Q70CQ3 whole entry): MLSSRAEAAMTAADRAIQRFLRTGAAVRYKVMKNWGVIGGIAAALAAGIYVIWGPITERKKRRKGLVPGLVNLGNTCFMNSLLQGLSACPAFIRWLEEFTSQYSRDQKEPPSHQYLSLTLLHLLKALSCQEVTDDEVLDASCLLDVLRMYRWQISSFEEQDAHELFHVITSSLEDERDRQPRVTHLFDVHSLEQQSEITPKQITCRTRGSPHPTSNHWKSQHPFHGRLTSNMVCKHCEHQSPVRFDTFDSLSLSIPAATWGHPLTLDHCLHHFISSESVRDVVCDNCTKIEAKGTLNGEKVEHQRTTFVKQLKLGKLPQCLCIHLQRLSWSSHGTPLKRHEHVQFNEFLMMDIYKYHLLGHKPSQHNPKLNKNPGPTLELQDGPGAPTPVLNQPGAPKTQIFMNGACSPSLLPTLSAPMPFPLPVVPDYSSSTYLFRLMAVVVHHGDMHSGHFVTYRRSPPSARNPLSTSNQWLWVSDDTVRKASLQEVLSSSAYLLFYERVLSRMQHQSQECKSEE

Take `CC(C)(C)NS(=O)(=O)c1cccc2c(NC(=O)[C@@H](Cc3ccccc3)NC(=O)c3ccccc3)cccc12` [Compound 4a, (R)-N-(1-((5-(N-(tert-butyl)sulfamoyl)naphthalen-1-yl)amino)-1-oxo-3-phenylpropan-2-yl)benzamide]: 248 nM corresponded to half-maximal inhibition (IC50). This lies in the sub-micromolar range. `CC(C)(C)NS(=O)(=O)c1cccc2c(NC(=O)[C@H](Cc3ccccc3)NC(=O)c3ccccc3)cccc12` [Compound 4b, (S)—N-(1-((5-(N-(tert-butyl)sulfamoyl)naphthalen-1-yl)amino)-1-oxo-3-phenylpropan-2-yl)benzamide] returned an IC50 of 273 nM. As to `CC(C)(C)NS(=O)(=O)c1cccc2c(NC(=O)[C@H](Cc3ccccc3)NC(=O)C3CCCCC3)cccc12` [Compound 4c, (S)-N-(1-((5-(N-(tert-butyl)sulfamoyl)naphthalen-1-yl)amino)-1-oxo-3-phenylpropan-2-yl)cyclohexanecarboxamide], the IC50 was determined as 125 nM. Take `CC(C)(C)NS(=O)(=O)c1cccc2c(NC(=O)[C@H](Cc3ccccc3)NC(=O)C3CC3)cccc12` [Compound 4d, (S)-N-(1-((5-(N-(tert-butyl)sulfamoyl)naphthalen-1-yl)amino)-1-oxo-3-phenylpropan-2-yl)cyclopropanecarboxamide]: the IC50 was more than 10000 nM. Consider `CC(C)(C)NS(=O)(=O)c1cccc2c(NC(=O)[C@H](Cc3ccccc3)NC(=O)Cc3ccccc3)cccc12` [Compound 4e, (S)-N-(5-(N-(tert-butyl)sulfamoyl)naphthalen-1-yl)-3-phenyl-2-(2-phenylacetamido)propanamide], for which the IC50 is more than 10000 nM. As to `CC(C)(C)NS(=O)(=O)c1cccc2c(NC(=O)[C@H](Cc3ccccc3)NC(=O)CCc3ccccc3)cccc12` [Compound 4f, (S)-N-(5-(N-(tert-butyl)sulfamoyl)naphthalen-1-yl)-3-phenyl-2-(3-phenylpropanamido)propanamide], the IC50 is more than 10000 nM.

For the compound `CC(C)(C)NS(=O)(=O)c1cccc2c(NC(=O)[C@H](Cc3ccccc3)NC(=O)c3cccs3)cccc12` [Compound 4h, (S)-N-(1-((5-(N-(tert-butyl)sulfamoyl)naphthalen-1-yl)amino)-1-oxo-3-phenylpropan-2-yl)thiophene-2-carboxamide], half-maximal inhibition (IC50) required 1800 nM.

For the compound `Cc1ccc(C(=O)N[C@@H](Cc2ccccc2)C(=O)Nc2cccc3c(S(=O)(=O)NC(C)(C)C)cccc23)cc1` [Compound 4i, (S)-N-(1-((5-(N-(tert-butyl)sulfamoyl)naphthalen-1-yl)amino)-1-oxo-3-phenylpropan-2-yl)-4-methylbenzamide], the IC50 turned out to be 2500 nM. The compound `CC(C)(C)NS(=O)(=O)c1cccc2c(NC(=O)[C@H](Cc3ccccc3)NC(=O)c3ccc(F)cc3)cccc12` [Compound 4j, (S)-N-(1-((5-(N-(tert-butyl)sulfamoyl)naphthalen-1-yl)amino)-1-oxo-3-phenylpropan-2-yl)-4-fluorobenzamide] came in with an IC50 of 49 nM.

Compound `CC(C)(C)NS(=O)(=O)c1cccc2c(NC(=O)[C@H](Cc3ccccc3)NC(=O)C3CCOCC3)cccc12` [Compound 4k, (S)-N-(1-((5-(N-(tert-butyl)sulfamoyl)naphthalen-1-yl)amino)-1-oxo-3-phenylpropan-2-yl)tetrahydro-2H-pyran-4-carboxamide] had an IC50 of more than 10000 nM. Under `CC(C)(C)NS(=O)(=O)c1cccc2c(NC(=O)[C@H](Cc3ccccc3)NC(=O)C3CCCC3)cccc12` [Compound 4l, (S)-N-(1-((5-(N-(tert-butyl)sulfamoyl)naphthalen-1-yl)amino)-1-oxo-3-phenylpropan-2-yl)cyclopentanecarboxamide] stands 366 nM; under `Cc1cccc(C(=O)N[C@@H](Cc2ccccc2)C(=O)Nc2cccc3c(S(=O)(=O)NC(C)(C)C)cccc23)n1` [Compound 4m, (S)-N-(1-((5-(N-(tert-butyl)sulfamoyl)naphthalen-1-yl)amino)-1-oxo-3-phenylpropan-2-yl)-6-methylpicolinamide], more than 10000 nM.

In turn, `CC(C)(C)NS(=O)(=O)c1cccc2c(NC(=O)[C@H](Cc3ccccc3)NC(=O)C3CCC(F)(F)CC3)cccc12` [Compound 4n, (S)—N-(1-((5-(N-(tert-butyl)sulfamoyl)naphthalen-1-yl)amino)-1-oxo-3-phenylpropan-2-yl)-4,4-difluorocyclohexane-1-carboxamide] gave an IC50 of 98 nM. This lies in the double-digit nanomolar range.

As for `CC(C)(C)NS(=O)(=O)c1cccc2c(NC(=O)[C@H](Cc3ccccc3)NC(=O)c3ncccn3)cccc12` [Compound 4o, (S)-N-(1-((5-(N-(tert-butyl)sulfamoyl)naphthalen-1-yl)amino)-1-oxo-3-phenylpropan-2-yl)pyrimidine-2-carboxamide], the IC50 was more than 10000 nM.

For `CC(C)(C)NS(=O)(=O)c1cccc2c(NC(=O)[C@H](Cc3ccccc3)NC(=O)C3CCCCCC3)cccc12` [Compound 4p, (S)-N-(1-((5-(N-(tert-butyl)sulfamoyl)naphthalen-1-yl)amino)-1-oxo-3-phenylpropan-2-yl)cycloheptanecarboxamide], the IC50 was found to be 4300 nM. `CC(C)(C)NS(=O)(=O)c1cccc2c(NC(=O)[C@H](Cc3ccccc3)NC(=O)c3nccs3)cccc12` [Compound 4q, (S)-N-(1-((5-(N-(tert-butyl)sulfamoyl)naphthalen-1-yl)amino)-1-oxo-3-phenylpropan-2-yl)thiazole-2-carboxamide] registered an IC50 of 180 nM. `CC(C)(C)NS(=O)(=O)c1cccc2c(NC(=O)[C@H](Cc3ccccc3)NC(=O)c3ccc(C#N)cc3)cccc12` [Compound 4r, (S)-N-(1-((5-(N-(tert-butyl)sulfamoyl)naphthalen-1-yl)amino)-1-oxo-3-phenylpropan-2-yl)-4-cyanobenzamide] had an IC50 of 269 nM. This IC50 and that of the compound before are within 1.5-fold of each other. Turning to `CC(C)(C)NS(=O)(=O)c1cccc2c(NC(=O)[C@H](Cc3ccccc3)NC(=O)C34CC5CC(CC(C5)C3)C4)cccc12` [Compound 4s], the IC50 was more than 10000 nM. `CC1CCC(C(=O)N[C@@H](Cc2ccccc2)C(=O)Nc2cccc3c(S(=O)(=O)NC(C)(C)C)cccc23)CC1` (stereo partly drawn) [Compound 4t, (S)-N-(1-((5-(N-(tert-butyl)sulfamoyl)naphthalen-1-yl)amino)-1-oxo-3-phenylpropan-2-yl)-4-methylcyclohexane-1-carboxamide]: the IC50 was more than 10000 nM. The compound `CC(C)(C)NS(=O)(=O)c1cccc2c(NC(=O)[C@H](Cc3ccccc3)NC(=O)C3CCCO3)cccc12` (stereo partly drawn) [Compound 4u, N-((S)-1-((5-(N-(tert-butyl)sulfamoyl)naphthalen-1-yl)amino)-1-oxo-3-phenylpropan-2-yl)tetrahydrofuran-2-carboxamide] displayed an IC50 of more than 10000 nM. `COc1ccc(C(=O)N[C@@H](Cc2ccccc2)C(=O)Nc2cccc3c(S(=O)(=O)NC(C)(C)C)cccc23)cc1` [Compound 4v, (S)-N-(1-((5-(N-(tert-butyl)sulfamoyl)naphthalen-1-yl)amino)-1-oxo-3-phenylpropan-2-yl)-4-methoxybenzamide] came in with an IC50 of 9000 nM. This lies in the single-digit micromolar range. Under `CC(C)(C)NS(=O)(=O)c1cccc2c(NC(=O)[C@H](Cc3ccccc3)NC(=O)c3ccc(O)cc3)cccc12` [Compound 4w, (S)-N-(1-((5-(N-(tert-butyl)sulfamoyl)naphthalen-1-yl)amino)-1-oxo-3-phenylpropan-2-yl)-4-hydroxybenzamide] stands more than 10000 nM; under `CC(C)(C)NS(=O)(=O)c1cccc2c(NC(=O)[C@H](Cc3ccccc3)NC(=O)c3ccccn3)cccc12` [Compound 4x, (S)-N-(1-((5-(N-(tert-butyl)sulfamoyl)naphthalen-1-yl)amino)-1-oxo-3-phenylpropan-2-yl)picolinamide], 170 nM. The compound `CC(C)(C)NS(=O)(=O)c1cccc2c(NC(=O)[C@H](Cc3ccccc3)NC(=O)c3ccc[nH]3)cccc12` [Compound 4y, (S)-N-(1-((5-(N-(tert-butyl)sulfamoyl)naphthalen-1-yl)amino)-1-oxo-3-phenylpropan-2-yl)-1H-pyrrole-2-carboxamide] yielded an IC50 of 1900 nM. Against the preceding compound, the IC50 is about 11-fold higher.

As for `CC(C)(C)NS(=O)(=O)c1cccc2c(NC(=O)[C@H](Cc3ccccc3)NC(=O)c3ccco3)cccc12` [Compound 4z, (S)-N-(1-((5-(N-(tert-butyl)sulfamoyl)naphthalen-1-yl)amino)-1-oxo-3-phenylpropan-2-yl)furan-2-carboxamide], the IC50 is more than 10000 nM.

Compound `CC(C)C[C@H](NC(=O)c1ccccc1)C(=O)Nc1cccc2c(S(=O)(=O)NC(C)(C)C)cccc12` [Compound 7a, (S)-N-(1-((5-(N-(tert-butyl)sulfamoyl)naphthalen-1-yl)amino)-4-methyl-1-oxopentan-2-yl)benzamide] showed an IC50 of 4300 nM.

Regarding `CC(C)(C)NS(=O)(=O)c1cccc2c(NC(=O)[C@H](Cc3ccc(O)cc3)NC(=O)c3ccccc3)cccc12` [Compound 7b, (S)-N-(1-((5-(N-(tert-butyl)sulfamoyl)naphthalen-1-yl)amino)-3-(4-hydroxyphenyl)-1-oxopropan-2-yl)benzamide], the IC50 is 520 nM. With `CC(C)(C)NS(=O)(=O)c1cccc2c(NC(=O)[C@H](CC3CCCCC3)NC(=O)c3ccccc3)cccc12` [Compound 7c, (S)-N-(1-((5-(N-(tert-butyl)sulfamoyl)naphthalen-1-yl)amino)-3-cyclohexyl-1-oxopropan-2-yl)benzamide], inhibition was half-maximal at 666 nM (IC50). The IC50 values of the last two compounds are within 1.5-fold of each other.
